# Patent US6329497A, “Sandramycin analogs” (The Scripps Research Institute, priority 1999, dated 2001)
# Entries after “also recorded” stand apart in the source; their conditions may differ. Where two headings read alike, the source gives them in different places.
# Assays:
# [1] = system: calf thymus DNA and 5'-d(GCATGC)2; assay: DNA binding affinity trends over calf thymus DNA and 5'-d(GCATGC)2 (fluorescence quenching)
# Procedure: (§1) Apparent absolute DNA binding constants for 1-22 and related agents including luzopeptin A were obtained by measurement of the fluorescence quenching upon titration addition of calf thymus DNA or the deoxyoligonucleotides 5'-d(GCXXGC)2 where XX=AT, TA, GC, and CG. For each agent, the characteristic fluorescence excitation and emission spectra were recorded in 10 mM Tris-HCl, 75 mM NaCl (pH 7.4) buffer, FIG. 6. For the DNA binding assays which quantitate the fluorescence quenching, excitation outside the absorbance range of DNA was employed and the most intense fluorescence emission at a longer wavelength monitored. For assay of the DNA-induced fluorescence quenching of the agents, a 2 mL buffer solution of Tris-HCl (pH 7.4) and 75 mM NaCl was employed. For titration, small aliquots of DNA were added to solutions of the agents in Tris-HCl buffer (pH 7.4).
# (§2) Despite these precautions, the fluorescence for a number of the analog solutions decreased for several of analogs (11, 14, 17, 21 and 22) and the quality of the binding constants for these should be viewed with caution. […] The titrations were carried out with 15 min time intervals between DNA additions to allow binding equilibration. […] The titration fluorescence quenching was analyzed by Scatchard analysis (Scatchard, G. Ann. N. Y. Acad. Sci. 1949, 51, 660) with the following equation: rb /c=Kb n-Kb rb where rb is the number of agent molecules bound per DNA base-pair, c is the free drug concentration, Kb is the apparent association constant, and n is the number of agent binding sites per base-pair.
# A pronounced downward curvature in an infinite lattice such as calf thymus DNA is recognized to arise in part from neighbor exclusion where the binding of an agent excludes the subsequent binding at nearby sites. This exclusion manifests itself in the plot by a reduction in the apparent binding constant as the DNA lattice approaches saturation and the probability of finding a free site is diminished. In the calf thymus DNA studies, the binding also entails multiple classes of independent binding sites or modes. For simplicity, a linear fit of the high affinity binding sites was used to determine the binding constant attributable to bis-intercalation. For the deoxyoligonucleotides, the curvature can be more simply attributed to multiple classes of independent binding sites or binding modes. There are a number of mathematical methods to deconvolute the curved plot into such individual binding events. In the deoxyoligonucleotide studies, a non-linear fit described by Feldman was also used to deconvolute the curves. The model assumes one ligand with two binding types or sites. Since the number of binding sites is limited, we have interpreted this to indicate a high affinity bis-intercalation and a lower affinity binding potentially involving mono-intercalation. The formula was fit using the JMP^22 statistical fitting program using an initial approximation of the two n values and fitting for K1 and K2.
# After 5 min of stirring, an initial fluorescence reading was taken with minimum exposure to the excitation beam. […] The excitation and emission wavelengths used for each analog varied and can be found in FIG. 6. The results of the titration were analyzed by Scatchard analysis. The linear portion of the Scatchard plot was used to determine the high affinity binding constants. In the case of the deoxyoligonucleotide study, a non-linear fit of the curve as described in the text was also used to determine the high affinity binding constant (Feldman, H. A. Anal. Biochem. 1972, 48, 317).
# [2] = molecular target: T1, HIV-1 reverse transcriptase (Human immunodeficiency virus type 1 group M subtype B, UniProt P04585); assay: Inhibition of HIV-1 reverse transcriptase; type: biochemical
# Procedure: The assay was performed according to an available procedure (Goldman, M. E.; Salituro, G. S.; Bowen, J. A.; Williamson, J. M.; Zink, D. L.; Schleif, W. A.; Emini, E. A. Mol. Pharmacol. 1990, 38, 20) with slight modification. A 45 L solution of reaction buffer containing 55 mM Tris·HCl, pH 8.2, 80 mM potassium chloride, 12 mM MgCl2, 1 mM DTT, 50 M EGTA, 2.5 g/mL rA·dT, 0.5 Ci of [^3 H]TTP, 10 M TTP, 1 mg/mL BSA, and 0.01% Triton X-100 was added to a well in a filter cluster plate (Millipore MAHV N45). The reverse transcription reaction was initiated upon addition of the reverse transcriptase (1 unit; 1 unit=10 pmol of [^3 H]TMP incorporated/60 min at 37° C.). The plate was incubated at 37° C. for 90 min. The plate was then placed on ice and 200 µL of 13% trichloroacetic acid and 10 mM sodium pyrophosphate was added to each well. The plate was chilled for 2 h and the liquid vacuumed out through the filter using a Millipore manifold (Millipore MAVM 09601). The precipitate was washed with 1 M and 10 mM sodium pyrophosphate twice. The filter was punched out and placed in a scintillation vial. 4 mL of cocktail was added. Radioactivity was determined by liquid scintillation counting.
# The effects of sandramycin and its analogs on HIV-1 reverse transcriptase were determined by incubating the agents and the rA·dT containing buffer at 25° C. for 30 min prior to addition of the reverse transcriptase. Reactions containing no agents were used as controls, and those lacking the transcriptase were used as blanks.
# [3] = system: L1210 cell line; assay: In vitro cytotoxic activity, L1210; type: cell-based
# [4] = Solubility of the agents in assay buffer / water; type: physicochemical; conditions: aqueous Tris-HCl/NaCl buffer pH 7.4
# [5] = system: calf thymus DNA; assay: DNA binding constants by fluorescence quenching, calf thymus DNA
# Procedure: as §1, with “For titration, small aliquots of DNA were added to solutions of the agents in Tris-HCl buffer (pH 7.4).” left out
# Despite these precautions, the fluorescence for a number of the analog solutions decreased for several of analogs (11, 14, 17, 21 and 22) and the quality of the binding constants for these should be viewed with caution. […] The titration fluorescence quenching was analyzed by Scatchard analysis (Scatchard, G. Ann. N. Y. Acad. Sci. 1949, 51, 660) with the following equation: rb /c=Kb n-Kb rb where rb is the number of agent molecules bound per DNA base-pair, c is the free drug concentration, Kb is the apparent association constant, and n is the number of agent binding sites per base-pair. […]
# [6] = system: 5'-d(GCATGC)2; assay: DNA binding by fluorescence quenching, 5'-d(GCATGC)2; conditions: for DNA binding affinity, in words: 5'-d(GCATGC)2, relative to 1 and 4
# Procedure: as §1, §2
# A pronounced downward curvature in an infinite lattice such as calf thymus DNA is recognized to arise in part from neighbor exclusion where the binding of an agent excludes the subsequent binding at nearby sites. This exclusion manifests itself in the plot by a reduction in the apparent binding constant as the DNA lattice approaches saturation and the probability of finding a free site is diminished. In the calf thymus DNA studies, the binding also entails multiple classes of independent binding sites or modes. […]
# [7] = system: calf thymus DNA; conditions: cited from earlier work
# [8] = molecular target: T1, HIV-1 reverse transcriptase; conditions: cited from earlier work
compound,measurement,setting,value
"CC(C)[C@H]1C(=O)OC[C@@H](NC(=O)c2cc3ccccc3cc2O)C(=O)N2CCCC[C@H]2C(=O)NCC(=O)N(C)CC(=O)N(C)[C@@H](C(C)C)C(=O)OC[C@@H](NC(=O)c2cc3ccccc3cc2O)C(=O)N2CCCC[C@H]2C(=O)NCC(=O)N(C)CC(=O)N1C [compound 5, (N-(3-Hydroxynaphthyl-2-carbonyl)-D-Ser-Pip-Gly-Sar-NMe-Val)2(Serine Hydroxyl) Dilactone]","DNA binding affinity, in words",[1],substantially less effective than all agents in the series
same,"HIV-1 reverse transcriptase inhibition, in words",[2],much less effective
same,"cytotoxic potency, fold less potent than 1",[3],10000
same,solubility in the fluorescence quenching assay,[4],not sufficiently soluble; also recorded: limited solubility
CC(C)[C@H]1C(=O)OC[C@@H](NC(=O)c2ccc3ccccc3c2)C(=O)N2CCCC[C@H]2C(=O)NCC(=O)N(C)CC(=O)N(C)[C@@H](C(C)C)C(=O)OC[C@@H](NC(=O)c2ccc3ccccc3c2)C(=O)N2CCCC[C@H]2C(=O)NCC(=O)N(C)CC(=O)N1C [compound 7],"DNA binding affinity, in words",[1],substantially less effective than all agents in the series
same,"HIV-1 reverse transcriptase inhibition, in words",[2],much less effective
same,"cytotoxic potency, fold less potent than 4",[3],2000
same,"cytotoxic potency, fold less potent than 5",[3],2
same,solubility in the fluorescence quenching assay,[4],not sufficiently soluble; also recorded: limited solubility
CC(C)C1C(=O)OCC(NC(=O)c2ncccc2O)C(=O)N2CCCCC2C(=O)NCC(=O)N(C)CC(=O)N(C)C(C(C)C)C(=O)OCC(NC(=O)c2ncccc2O)C(=O)N2CCCCC2C(=O)NCC(=O)N(C)CC(=O)N1C (stereo not shown) [compound 8],drop in DNA binding affinity,[5]; removal of fused benzene ring,1.7 kcal/mol
same,"HIV-1 reverse transcriptase inhibition, in words",[2],much less effective
same,"cytotoxic potency, fold less potent than 1",[3],4000
same,drop in DNA binding affinity,"[6]; 5'-d(GCATGC)2, removal of fused benzene ring",2.3 to 2.6 kcal/mol
"CC(C)C1C(=O)OCC(NC(=O)c2cnc3ccccc3n2)C(=O)N2CCCCC2C(=O)NCC(=O)N(C)CC(=O)N(C)C(C(C)C)C(=O)OCC(NC(=O)c2cnc3ccccc3n2)C(=O)N2CCCCC2C(=O)NCC(=O)N(C)CC(=O)N1C [compound 18, (N-(Quinoxalyl-2-carbonyl)-D-Ser-Pip-Gly-Sar-NMe-Val)2 (Serine Hydroxyl) Dilactone]","HIV-1 reverse transcriptase inhibition, in words",[2],roughly maintain the HIV-1 reverse transcriptase inhibitory potency of 1; also recorded: Comparable but slightly less potent inhibition
same,fold less potent than sandramycin,[2],3
same,"cytotoxic potency, fold less potent than 4",[3],approximately 10
same,"cytotoxic potency, fold less potent than 13",[3],approximately 10
same,"cytotoxic potency, fold more potent than 19",[3],300
same,solubility in the fluorescence quenching assay,[4],not sufficiently soluble; also recorded: limited solubility
CC[n+]1c(-c2ccccc2)c2cc(N)ccc2c2ccc(N)cc21 [ethidium bromide],binding constant employed to calculate the absolute binding constant,[7],450000 M⁻¹
"COc1ccc2nc(C(=O)N[C@@H]3COC(=O)[C@H](C(C)(C)O)N(C)C(=O)CN(C)C(=O)CNC(=O)[C@@H]4[C@@H](OC(C)=O)CC=NN4C(=O)[C@H](NC(=O)c4nc5ccc(OC)cc5cc4O)COC(=O)[C@H](C(C)(C)O)N(C)C(=O)CN(C)C(=O)CNC(=O)[C@@H]4[C@@H](OC(C)=O)CC=NN4C3=O)c(O)cc2c1 [luzopeptin A, reference compound]",IC50,[8]; read-out: IC50 reported elsewhere,7 nM
same,fold higher than values reported elsewhere,[2],20-30
same,IC50,[2]; range given for both agents,130 to 190 nM
COc1ccc2nc(C(=O)N[C@@H]3COC(=O)[C@H](C(C)(C)O)N(C)C(=O)CN(C)C(=O)CNC(=O)[C@@H]4[C@@H](OC(=O)[C@@H]5C[C@H]5C)CC=NN4C(=O)[C@H](NC(=O)c4cnc5cc(OC)ccc5n4)COC(=O)[C@H](C(C)(C)O)N(C)C(=O)CN(C)C(=O)CNC(=O)[C@@H]4C(OC(C)=O)CC=NN4C3=O)cnc2c1 (stereo partly shown) [quinoxapeptin B],fold less potent than quinoxapeptin A and luzopeptin A,[8],approximately 2
(N-(Iso-quinolinyl-3-carbonyl)-D-Ser-Pip-Gly-Sar-NMe-Val)2 (Serine Hydroxyl) Dilactone [compound 21],"DNA binding affinity, in words",[1],comparable to that of the monointercalator 24
same,"HIV-1 reverse transcriptase inhibition, in words",[2],much less effective
same,"DNA binding affinity, in words",[6],substantially less effective
(N-(Isoquinolinyl-1-carbonyl)-D-Ser-Pip-Gly-Sar-NMe-Val)2 (Serine Hydroxyl) Dilactone [compound 22],"DNA binding affinity, in words",[5],comparable to 4
same,"DNA binding affinity, in words",[1],comparable to that of the monointercalator 24
same,"HIV-1 reverse transcriptase inhibition, in words",[2],much less effective
same,"DNA binding affinity, in words",[6],substantially less effective
